The source made the active and inactive calls. The rule behind the calls is not given here.
Key:
[1] = molecular target: T1, DNA topoisomerase 1 (Homo sapiens) (UniProt P11387); experiment: Inhibition of human topoisomerase 1-mediated supercoiled pUC19 DNA relaxation at 1 to 50 uM after 45 mins by agarose gel electrophoresis
T1 sequence (whole entry): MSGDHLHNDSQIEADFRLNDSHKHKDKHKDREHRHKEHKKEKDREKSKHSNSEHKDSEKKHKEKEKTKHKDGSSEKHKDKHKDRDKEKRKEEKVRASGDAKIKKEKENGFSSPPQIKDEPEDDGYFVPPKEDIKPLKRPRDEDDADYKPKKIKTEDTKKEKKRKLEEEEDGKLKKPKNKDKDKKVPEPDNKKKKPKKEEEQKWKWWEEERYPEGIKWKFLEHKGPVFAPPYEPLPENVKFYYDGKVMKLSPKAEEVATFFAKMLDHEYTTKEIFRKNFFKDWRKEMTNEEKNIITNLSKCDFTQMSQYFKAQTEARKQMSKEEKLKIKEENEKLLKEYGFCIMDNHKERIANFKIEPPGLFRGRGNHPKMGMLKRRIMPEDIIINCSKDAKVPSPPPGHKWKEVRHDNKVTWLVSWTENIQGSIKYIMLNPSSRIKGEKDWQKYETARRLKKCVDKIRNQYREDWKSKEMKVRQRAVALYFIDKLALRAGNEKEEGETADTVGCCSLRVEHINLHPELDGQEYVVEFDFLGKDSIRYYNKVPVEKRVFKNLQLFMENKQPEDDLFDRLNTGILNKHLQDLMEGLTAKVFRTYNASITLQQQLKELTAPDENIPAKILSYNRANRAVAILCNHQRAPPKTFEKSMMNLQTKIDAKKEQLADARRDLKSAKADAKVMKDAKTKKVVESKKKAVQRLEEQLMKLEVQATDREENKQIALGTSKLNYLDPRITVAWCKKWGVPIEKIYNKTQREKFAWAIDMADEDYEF

DNA [2] = experiment: Binding affinity to calf thymus DNA at 50 uM by Circular dichroism spectra analysis; format: nucleic-acid assay; settings: Bos taurus
DNA [3] = experiment: Binding affinity to calf thymus DNA assessed as change in melting temperature at 0.5 drug/DNA ratio by spectrophotometer analysis; format: nucleic-acid assay; settings: Bos taurus
DNA [4] = experiment: Binding affinity to calf thymus DNA assessed as hypochromic effect at 20 uM by UV/Vis spectra analysis; format: nucleic-acid assay; settings: Bos taurus
HeLa = experiment: Antiproliferative activity against human HeLa cells after 72 hrs by MTT assay; format: functional, cell-based; settings: for CC50: read-out: LC50 (the source's name)
[5] = (§1) Antiproliferative activity against human WI38 cells after 72 hrs by MTT assay; format: cell-based, WI-38; settings: human, WI-38 cells; read-out: LC50
WI-38 = experiment: as §1; format: cell-based; settings: Homo sapiens, WI-38, 72 h
SW-620 = experiment: Antiproliferative activity against human SW620 cells after 72 hrs by MTT assay; format: functional, cell-based; settings: SW-620, 72 h; for CC50: read-out: LC50 (the source's name)
MIA PaCa-2 = experiment: Antiproliferative activity against human MIAPaCa2 cells after 72 hrs by MTT assay; format: functional, cell-based; settings: MIA PaCa-2, 72 h; for CC50: read-out: LC50 (the source's name)
SK-BR-3 = experiment: Antiproliferative activity against human SKBR3 cells after 72 hrs by MTT assay; format: functional, cell-based; settings: SK-BR-3, 72 h; for CC50: read-out: LC50 (the source's name)
MCF7 = experiment: Antiproliferative activity against human MCF7 cells after 72 hrs by MTT assay; format: functional, cell-based; settings: MCF7, 72 h; for CC50: read-out: LC50 (the source's name)
[6] = molecular target: DNA topoisomerase 2-alpha (Homo sapiens) (UniProt P11388); experiment: Inhibition of human topoisomerase 2-mediated supercoiled pUC19 DNA relaxation assessed as formation of open circle form after 45 mins using ethidium bromide staining by agarose gel electrophoresis
[7] = molecular target: T1, DNA topoisomerase 1 (Homo sapiens); experiment: Inhibition of human topoisomerase 1-mediated supercoiled pUC19 DNA relaxation assessed as formation of open circle form after 45 mins using ethidium bromide staining by agarose gel electrophoresis
DNA [8] = experiment: Binding affinity to calf thymus DNA assessed as change in melting temperature at 0.25 drug/DNA ratio by spectrophotometer analysis; format: nucleic-acid assay; settings: Bos taurus

Sequence of DNA topoisomerase 2-alpha (Homo sapiens) (P11388 whole entry): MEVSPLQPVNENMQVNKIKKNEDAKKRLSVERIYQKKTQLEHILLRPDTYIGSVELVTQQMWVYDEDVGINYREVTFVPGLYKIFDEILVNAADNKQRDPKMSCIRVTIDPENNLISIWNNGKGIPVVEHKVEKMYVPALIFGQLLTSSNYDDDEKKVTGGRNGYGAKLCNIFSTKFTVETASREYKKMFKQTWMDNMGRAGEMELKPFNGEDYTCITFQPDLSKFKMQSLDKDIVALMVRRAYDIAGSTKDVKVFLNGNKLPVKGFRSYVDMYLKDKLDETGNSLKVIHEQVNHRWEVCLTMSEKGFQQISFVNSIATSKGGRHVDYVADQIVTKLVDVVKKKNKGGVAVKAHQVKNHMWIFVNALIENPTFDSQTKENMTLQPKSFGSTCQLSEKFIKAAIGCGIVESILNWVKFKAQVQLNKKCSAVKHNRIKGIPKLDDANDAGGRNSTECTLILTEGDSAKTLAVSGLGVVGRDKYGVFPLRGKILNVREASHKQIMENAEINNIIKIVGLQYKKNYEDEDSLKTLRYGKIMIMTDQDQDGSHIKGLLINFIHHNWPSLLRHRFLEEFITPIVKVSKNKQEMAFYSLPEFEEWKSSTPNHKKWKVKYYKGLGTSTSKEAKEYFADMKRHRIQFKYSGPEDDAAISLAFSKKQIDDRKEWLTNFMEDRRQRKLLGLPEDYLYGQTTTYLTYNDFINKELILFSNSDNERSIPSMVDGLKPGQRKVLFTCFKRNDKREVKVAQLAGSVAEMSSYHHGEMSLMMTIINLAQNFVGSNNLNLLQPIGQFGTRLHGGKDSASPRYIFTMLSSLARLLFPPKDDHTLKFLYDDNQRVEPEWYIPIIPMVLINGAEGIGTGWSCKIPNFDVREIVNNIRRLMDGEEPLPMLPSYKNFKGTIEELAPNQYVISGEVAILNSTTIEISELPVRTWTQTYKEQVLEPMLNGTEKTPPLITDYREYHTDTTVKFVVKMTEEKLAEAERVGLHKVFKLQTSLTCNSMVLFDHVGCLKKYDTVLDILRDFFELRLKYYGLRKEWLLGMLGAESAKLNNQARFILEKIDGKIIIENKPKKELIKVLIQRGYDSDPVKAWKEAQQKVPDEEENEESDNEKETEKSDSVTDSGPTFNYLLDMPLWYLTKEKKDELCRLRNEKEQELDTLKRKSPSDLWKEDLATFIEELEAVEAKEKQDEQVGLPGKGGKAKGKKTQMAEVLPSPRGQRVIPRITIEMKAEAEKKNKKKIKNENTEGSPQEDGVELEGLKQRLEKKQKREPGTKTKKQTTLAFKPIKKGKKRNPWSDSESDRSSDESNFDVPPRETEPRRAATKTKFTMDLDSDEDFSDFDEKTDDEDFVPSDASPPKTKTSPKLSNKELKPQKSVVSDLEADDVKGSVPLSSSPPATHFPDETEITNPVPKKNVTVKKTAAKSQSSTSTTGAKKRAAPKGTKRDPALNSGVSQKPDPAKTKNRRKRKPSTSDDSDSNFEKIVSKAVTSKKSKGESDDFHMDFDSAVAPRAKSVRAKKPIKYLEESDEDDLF

## c1ccc(-c2nc3ccc(C4=NCCN4)cc3s2)c(-c2nc3ccc(C4=NCCN4)cc3s2)c1
[1]
  inhibition: Active
DNA [2]
  Activity: Active
DNA [3]
  ΔTm: 16.8 °C
DNA [4]
  Activity: Active
HeLa
  IC50: 26.8 µM
  CC50: 76.4 µM
[5]
  CC50 at 72 h: 74.3 µM
WI-38
  IC50: 8.99 µM
SW-620
  IC50: 24.7 µM
  CC50: 81.3 µM
MIA PaCa-2
  IC50: 14.6 µM
  CC50: 72.9 µM
SK-BR-3
  IC50: 1.86 µM
  CC50: 67.9 µM
MCF7
  IC50: 10.1 µM
  CC50: 71.4 µM

## N=C(N)c1ccc2nc(-c3ccc(-c4nc5ccc(C(=N)N)cc5s4)cc3)sc2c1
[6]
  inhibition: Active
[7]
  inhibition: Active
DNA [2]
  Activity: inactive
DNA [3]
  ΔTm: 3 °C
DNA [4]
  Activity: Active
HeLa
  IC50: 9.6 µM
  CC50: > 100 µM
[5]
  CC50 at 72 h: > 100 µM
WI-38
  IC50: 41.9 µM
SW-620
  IC50: > 100 µM
  CC50: > 100 µM
MIA PaCa-2
  IC50: 20.4 µM
  CC50: > 100 µM
SK-BR-3
  IC50: 8.55 µM
  CC50: > 100 µM
MCF7
  IC50: 9.01 µM
  CC50: > 100 µM

## N=C(N)c1ccc2nc(-c3ccccc3-c3nc4ccc(C(=N)N)cc4s3)sc2c1
DNA [2]
  Activity: Active
DNA [3]
  ΔTm: 9.8 °C
DNA [4]
  Activity: Active
HeLa
  IC50: 63.6 µM
  CC50: > 100 µM
[5]
  CC50 at 72 h: > 100 µM
WI-38
  IC50: 86.4 µM
SW-620
  IC50: > 100 µM
  CC50: > 100 µM
MIA PaCa-2
  IC50: 44.8 µM
  CC50: > 100 µM
SK-BR-3
  IC50: 86.6 µM
  CC50: > 100 µM
MCF7
  IC50: 30.9 µM
  CC50: > 100 µM

## N=C(N)c1ccc2nc(-c3cccc(-c4nc5ccc(C(=N)N)cc5s4)c3)sc2c1
[6]
  inhibition: Active
[7]
  inhibition: Active
DNA [2]
  Activity: Active
DNA [8]
  ΔTm: 13.7 °C
DNA [4]
  Activity: Active
HeLa
  IC50: > 100 µM
  CC50: > 100 µM
[5]
  CC50 at 72 h: 65.4 µM
WI-38
  IC50: 0.99 µM
SW-620
  IC50: 6.01 µM
  CC50: > 100 µM
MIA PaCa-2
  IC50: > 100 µM
  CC50: > 100 µM
SK-BR-3
  IC50: 83.2 µM
  CC50: > 100 µM
MCF7
  IC50: 5.34 µM
  CC50: > 100 µM
